Where two headings read alike, the source gives them in different places.
Tests used:
[1] = tested on: H3K9ac (the target of SIRT1, SIRT2 and SIRT6); assay: Sirtuin activity assay in HDF: H3K9ac levels (Western blot); type: cell-based, human; details: HDF treated 24h; for SIRT1,2,6 H3K9ac: Figure 1B; as to SIRT1,2,6 H3K9ac: key: ↑: increase; ↓: decrease; hyphens that indicate no effect (-)
Experimental: (§1) Figure 1 (A) Schematic representation of the compound testing for sirtuin activity evaluation in HDF. Cells were treated with or without the compounds for 24h and harvested for analysis. […] (C) Western Blot analysis and (D) quantification of H4K16ac and H3K9ac levels in cells treated with Resveratrol or Shikimic acid at the indicated concentrations. H4K16 and H3K9 levels were normalized to H4 and H3 levels respectively. Student T-test, *p<0.05, **p<0.01, ***p<0.001.
(§2) HDFs were plated in 100x20 mm2 cell culture plates and after 24h, fresh cell culture medium containing the compounds was added. After 24h, cells were detached with cell scrapers, harvested, and processed for qPCR or western blot.
(§3) Protein levels were analyzed as previously described. Cells were directly lysed in 1x Laemmli Buffer (Bio-Rad, USA), incubated at 95° C and centrifuged. Supernatant was subjected to SDS-polyacrylamide gel electrophoresis, and successive steps were performed as described. The list of antibodies used is included in Supplementary Table 2.

[2] = tested on: HAS2 (hyaluronic acid synthase 2); assay: UVB-induced senescence assay: HAS2 gene expression (qPCR); type: cell-based, human
Experimental: (§4) In the second approach, we established a method for inducing senescence in these cells with 2 cycles of UVB irradiation 72h apart (Figure 2A). The use of UVA to induce senescence was discarded due to its considerably longer time requirement, being unsuitable to screen 30 compounds within a reasonable period. Cells were treated with these compounds throughout the duration of the assay and cellular senescence was monitored with two markers: accumulation of SA-β-galactosidase (SA-β-Gal) activity, and the decrease in expression of HAS2 (hyaluronic acid synthase 2), a previously reported marker of skin senescence.
(§5) Figure 2 (A) Schematic representation of the protocol for senescence induction using UVB irradiation. Cells were treated -/+ the compounds from day 1 to 7 after seeding, irradiated with UVB on days 2 and 5 and harvested for analysis on day 7. […] (C) Phase-contrast (left column) and bright field (right column) microscope images of SA-β-Gal staining showing non-irradiated cells, UVB-irradiated cells non-treated and treated with Gallic acid or Shikimic acid at the indicated concentrations. (D) Percentage of SA-β-Gal positive cells and (E) Relative HAS2 mRNA levels in non-irradiated cells, UVB-irradiated cells and UVB-irradiated cells treated with Gallic acid or Shikimic acid at the indicated concentrations. Student T-test, *p<0.05, **p<0.01, ***p<0.001.
RNA was extracted from cell pellets using the Total RNA Purification Kit (Norgen, Canada), according to the manufacturer’s protocol. Extracted RNA was quantified using a NanoDrop® ND-1000 UV-Vis Spectrophotometer (Thermo Fisher Scientific, USA) and 300 ng of RNA were retrotranscribed to cDNA using the PrimeScriptTM RT reagent kit (Takara Bio Inc., Japan). cDNA was diluted 1/10 in ultrapure water and qPCR mix was prepared by adding cDNA (12 ng), SYBR green supermix (Bio Rad, USA), forward and reverse primers (0.2μM). The primers and their respective sequences are listed in Supplementary Table 1. qPCR protocol included one step at 95° C for 30 s, 40 cycles at 95° C for 10s, and 60° C for 1min. The results were analyzed with Bio-Rad CFX Manager software. BACT was used as a housekeeping gene to normalize gene expression.
(§6) Senescence induction by UVB irradiation For the non-irradiation control conditions, HDF were […]
(§7) After 24h, culture medium was removed and well plates. After 24h, culture medium was removed replaced by fresh cell culture medium containing the and replaced with fresh cell culture medium containing compounds at different concentrations. After 24h, the compounds at different concentrations. […]
(§8) cell culture medium was removed, and cells were cells/plate in fresh cell culture medium containing the irradiated at 25 mJ/cm2 of UVB light (312 nm) in a Bio- compound in 6-well plates. After 3 days, cells were […]
(§9) amount of PBS. PBS was then removed and fresh cell fresh cell culture medium containing the compound in culture medium with the compound was added to each 6-well plates. After 2 days, cells were processed well. After 3 days, cells were irradiated again under the according to the qPCR, β-Gal staining, apoptosis, cell same conditions. After 2 days, cells were processed cycle or immunofluorescence protocols. according to the qPCR, β-Gal staining, apoptosis, cell cycle or immunofluorescence protocols.

[3] = tested on: primary human dermal fibroblasts (HDFs)
Description: In our efforts to identify novel factors that could prevent skin cell senescence, we developed a screening process to identify new modulators of the protective role of sirtuins in UV-induced senescence. For this purpose, we established a culture of primary human dermal fibroblasts (HDFs). […] Our first step in the screening was to establish the optimal concentrations of these compounds in the case of HDFs. […] Once established, we took these parameters into account to decide the specific working range of concentrations for each compound.
Human dermal fibroblasts (HDFs) (Promocell, Germany) from 40-year old Caucasian women were used as the in vitro model for compound viability and efficacy screening. Cells were cultured in Dulbecco's modified eagle medium (DMEM) low glucose (Biowest, France) supplemented with 10% fetal bovine serum (FBS) (Capricorn Scientific, Germany) and 10 U/mL penicillin/streptomycin (Biowest, France) in a humidified incubator at 37° C and 5% CO2. For cell passage, cells at 80% confluence were trypsinized and plated at 60% confluence. Cells between passage 13 and 18 were used for the assays. For the SIRT1 in vitro assay, HEK293 cells (ATCC, USA), used to transfect and immunoprecipitate SIRT1 protein, were grown in DMEM high glucose (Thermo Fisher Scientific, USA), supplemented with 10% FBS in a humidified incubator at 37° C and 5% CO2. The following experiments were all performed in triplicate.
(§10) The protocol for senescence induction using UVB irradiation is described in the Supplementary Methods. SA-β-Gal staining, WST-1, sulforhodamine B (SRB) and trypan blue assays were performed as previously described. For the siRNA experiments, the protocol for senescence induction using UVB irradiation was the same as in the Supplementary Methods. Specific siRNA (Horizon discovery, UK) for SIRT1, SIRT2, SIRT6, BiP or scramble siRNA were incubated for 6 hours before each irradiation step.

[4] = tested on: UVB-irradiated human dermal fibroblasts (HDFs); assay: UVB-induced senescence assay: SA-β-Gal staining; type: cell-based; details: for β-Gal: HDF, 2 cycles of UVB, compound day 1 to 7, Figure 2B; as to β-Gal: key: ↑: increase; ↓: decrease; hyphens that indicate no effect (-)
Experimental: as §4, §5, §10, §6, §7, §8, §9

[5] = tested on: H4K16ac (the target of SIRT1 and SIRT2); assay: Sirtuin activity assay in HDF: H4K16ac levels (Western blot); type: cell-based, human; details: HDF treated 24h; for SIRT1,2 H4K16ac: Figure 1B; as to SIRT1,2 H4K16ac: key: ↑: increase; ↓: decrease; hyphens that indicate no effect (-)
Experimental: as §1, §2, §3

[6] = HDF, 2 cycles of UVB, compound day 1 to 7, Figure 2B
[7] = HDFs, WST-1 cell viability test
[8] = HDFs, WST-1 cell viability test, maximum non-cytotoxic dose

| SMILES | SIRT1,2,6 H3K9ac [1] | HAS2 expression [2, 6] | LD50 [3, 7] [mM] | Max. non-cyt. doses [3, 8] [mM] | β-Gal [4] | SIRT1,2 H4K16ac [5] | effect on H3K9ac levels [1] | LD50 ([3]; female, human) [mM] | Max. non-cyt. doses ([3]; female, human) [mM] | HAS2 expression ([2]; UVB-irradiated HDF) | effect on H4K16ac levels [5] | SA-β-Gal accumulation/staining ([4]; UVB-irradiated HDF) | prevention of UV-induced cellular senescence ([4]; UVB-irradiated HDF, SA-β-Gal and HAS2 markers) |
| --- | --- | --- | --- | --- | --- | --- | --- | --- | --- | --- | --- | --- | --- |
| O=C(OC[C@H]1OC(O)[C@@](O)(COC(=O)c2cc(O)c(O)c(O)c2)[C@@H]1O)c1cc(O)c(O)c(O)c1 (some centres unmarked) [Hamamelitannin] | - | - | 0.247 | 0.1 | - | - |  |  |  |  |  |  |  |
| c1coc(CNc2ncnc3[nH]cnc23)c1 [Kinetin] |  | - |  |  | - | - | reduced the levels of H3K9ac only | 1.835 | 0.5 |  |  |  |  |
| Cc1ncc(CO)c(CO)c1O [Pyridoxine, reference compound] | - | - |  |  | - | - |  | 16.92 | 5 |  |  |  |  |
| O=c1c(O)c(-c2ccc(O)c(O)c2)oc2cc(O)cc(O)c12 [Quercetin, reference compound] |  |  | 0.604 |  | - |  | induced a similar effect on both targets |  | 0.25 | only promoted HAS2 upregulation | induced a similar effect on both targets |  |  |
| Oc1ccc(/C=C/c2cc(O)cc(O)c2)cc1 [Resveratrol, reference compound] |  | - |  |  |  |  | induced a similar effect on both targets | 0.173 | 0.05 |  | induced a similar effect on both targets | increased SA-β-Gal staining |  |
| NC(=S)N/N=C/c1ccccc1O [Salicyladehyde thiosemicarbazone] | - | - | 4.175 | 0.5 | - | - |  |  |  |  |  |  |  |
| O=C(O)c1ccccc1O [Salicylic acid, reference compound] | - | - |  | 1 | - | - |  |  |  |  |  |  |  |
| Oc1ccc2c(c1)OCO2 [Sesamol] |  | - | 4.358 | 0.5 |  |  | induced a similar effect on both targets |  |  |  | induced a similar effect on both targets |  | did not prevent cellular senescence |
| COc1cc(C(=O)O)cc(OC)c1O [Syringic acid] | - | - |  |  | - | - |  | 3.65 | 1 |  |  |  |  |
| COc1cc(C=O)ccc1O [Vanillin] | - | - |  |  | - | - |  | 5.912 | 1 |  |  |  |  |
| C/C(=C\CNc1ncnc2[nH]cnc12)CO [Zeatin] |  | - | 2.462 | 1 | - | - | reduced the levels of H3K9ac only |  |  |  |  |  |  |
